T1: CAPRIN-1 protein (Homo sapiens, UniProt Q14444)
T1 construct: made in house
T1 sequence (Q14444 1-709): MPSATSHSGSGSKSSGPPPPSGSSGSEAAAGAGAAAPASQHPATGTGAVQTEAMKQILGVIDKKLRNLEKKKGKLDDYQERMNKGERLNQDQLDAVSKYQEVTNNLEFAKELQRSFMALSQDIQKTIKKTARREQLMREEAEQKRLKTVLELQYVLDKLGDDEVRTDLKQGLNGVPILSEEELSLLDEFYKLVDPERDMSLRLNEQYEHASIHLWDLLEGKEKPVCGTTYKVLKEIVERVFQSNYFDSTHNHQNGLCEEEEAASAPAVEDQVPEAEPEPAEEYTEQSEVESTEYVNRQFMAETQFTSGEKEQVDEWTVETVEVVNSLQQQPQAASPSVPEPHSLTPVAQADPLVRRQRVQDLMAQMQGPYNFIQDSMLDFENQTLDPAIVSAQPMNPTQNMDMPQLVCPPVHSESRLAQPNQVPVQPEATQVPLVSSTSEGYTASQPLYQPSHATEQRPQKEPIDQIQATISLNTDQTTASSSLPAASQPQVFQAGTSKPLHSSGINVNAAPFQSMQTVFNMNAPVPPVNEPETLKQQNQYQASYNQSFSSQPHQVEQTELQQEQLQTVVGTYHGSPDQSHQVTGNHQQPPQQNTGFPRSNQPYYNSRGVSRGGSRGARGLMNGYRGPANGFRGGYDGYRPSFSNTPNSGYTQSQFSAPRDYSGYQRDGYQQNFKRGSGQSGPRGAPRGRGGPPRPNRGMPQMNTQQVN

B1: (ab): mouse monoclonal antibody against CAPRIN-1 described in WO2013/125630, heavy-chain variable region SEQ ID NO: 114, light-chain variable region SEQ ID NO: 115 (antibody, listed as Mus musculus, V domains shown)
VH: GPELVKPGASVKMSCKASGYTFTSYVMHWVKQKPGQGLEWIGYINPYNDGTKYNEKFKGKATLTSDKSSSTAYMELSSLTSEDSAVYYCARRYYYGSSGGYFDVWAQDHVRT
VL: DVQITQSPSYLAASPGETITINCRASKSISKYLAWYQEKPGKTNKLLIYSGSTLQSGIPSRFSGSGSGTDFTLTISSLEPEDFAMYYCQQHNEYPYTFGGGTKLEIKR

Assays:
[1] = tested on: human breast cancer cells BT474; assay: In vivo antitumor effect of anti-CAPRIN-1 antibody and etoposide in BT474 cancer-bearing mice (Comparative Example 1); set-up: species or system NOD-SCID mice; details: etoposide alone, four times, day 55 after bearing cancer
Method: Next, an in vivo antitumor effect in a cancer-bearing mouse by a combined use of the anti-CAPRIN-1 antibody (anti-CAPRIN-1 humanized antibody #1) produced in Example 1 and etoposide (a topoisomerase inhibitor (topoisomerase II inhibitor) other than topotecan) was evaluated.
Specifically, the antitumor effect of the combination of the anti-CAPRIN-1 antibody and etoposide was studied using NOD-SCID mice in which human-derived cancer cells expressing CAPRIN-1 protein were subcutaneously transplanted. Human breast cancer cells BT474 were subcutaneously transplanted at 2×10^7 cells per mouse as a mixture with Matrigel (Sigma) and allowed to grow until a tumor became approximately 190 to 192 mm^3 to prepare cancer-bearing mice. […]
For a comparative control group, the same dose of the same anti-CAPRIN-1 antibody as above was administered once a week to cancer-bearing mice. […] After the start of administration, the sizes of cancers in the cancer-bearing mice were measured over time using calipers. The tumor volume of each individual was calculated according to a standard method using a calculation formula: (Length of the major axis of the tumor)×(Length of the minor axis of the tumor)^2×0.5, and the average of the treated group was calculated.

[2] = biological target: T1, CAPRIN-1 protein; assay: ELISA using CAPRIN-1 protein immobilized on a plate; assay type: binding
Method: One hundred (100) μg of a human CAPRIN-1 recombinant protein produced according to Example 3 of WO2010/016526 was mixed with an MPL+TDM adjuvant (Sigma) in an amount equivalent to that of the antigen protein. The mixture was used as an antigen solution per mouse. The antigen solution was administered intraperitoneally to 6-week-old Balb/c mice (Japan SLC Inc.) and then further administered 3 times […] every week for completion of immunization. A spleen was removed on day 3 after the final immunization and then ground between two sterilized glass slides. Spleen cells were obtained by repeating the following procedure three times: washing with PBS(−) (manufactured by Nissui Pharmaceutical Co., Ltd.), centrifuging at 1500 rpm for 10 minutes, and removing supernatant. The obtained spleen cells were mixed with mouse myeloma cell SP2/0 (purchased from ATCC) at a ratio of 10:1. The PEG solution prepared by mixing 200 μl of RPMI1640 medium containing 10% FBS heated at 37° C. and 800 μl of PEG1500 (Boehringer) was added to the cells. The solution was incubated for 5 minutes for cell fusion. Centrifugation was performed at 1700 rpm for 5 minutes to remove supernatants. […] Absorbance at 450 nm and absorbance at 595 nm were measured using an absorption spectrometer. As a result, a plurality of hybridomas producing antibodies with high absorbances were selected. […]

Molecule | tumor volume, assuming that the tumor volume of the negative control was 100% ([1]; high dose 15 mg/kg once every four days) | tumor volume, assuming that the tumor volume of the negative control was 100% ([1]; low dose 5 mg/kg once every four days) | reactivity with CAPRIN-1 protein [2]
COc1cc([C@@H]2c3cc4c(cc3[C@@H](O[C@@H]3O[C@@H]5CO[C@@H](C)O[C@H]5[C@H](O)[C@H]3O)[C@H]3COC(=O)[C@H]23)OCO4)cc(OC)c1O [etoposide] | 79% | 92% | –
B1 | – | – | exhibiting reactivity

— patent publication US20250228937A1, “MEDICAMENT FOR TREATMENT AND/OR PREVENTION OF CANCER” (TORAY INDUSTRIES, INC., priority 2021, published 2025)
